Where a name gives a salt, the structure may show the parent alone.

In one assay the test system is bacteria. Description: Minimum inhibitory concentration (MIC) assay, bacteria. Format: cell-based. Here is the method:
(§1) The assays described below were used to measure the minimum inhibitory concentration (MIC) of a compound necessary to inhibit visible growth of the organism tested. These assays are adapted from NCCLS protocols M7-A4 and M27-A (NCCLS vol 17:9 and vol 17:2) as modified by Sandven, S., Clin. Micro. (1999) 37:12, p. 3856–3859. MIC values for Aspergillus species were determined using NCCLS protocol M38-P.
(§2) All compounds were dissolved in 100% DMSO to a stock concentration of 10 mM and used fresh stock compounds in powder form were kept frozen until needed and used freshly. When used for test purposes, compounds were diluted in the appropriate media depending on the organism being tested.
(§3) For yeast and aspergillus species, seven 1:2 serial dilutions of compound in appropriate media buffered with MOPS at pH 7.0 were prepared such that the final starting test compound concentrations were 44.4 μM for yeast and 50 μM aspergillus species. For bacteria, dilutions were made in growth media used for the particular bacteria being tested.
Five well-separated colonies from a 24 h Sabouraud Dextrose plate incubated at 35° C. were picked and resuspended into 2 mL of normal saline. The O.D.530 was read and the culture was adjusted to 0.5 McFarland units with normal saline. A 1:2000 dilution was made with RPMI 1640 media buffered with MOPS at pH 7.0 and 100 μL of this inoculum preparation was added to an equal volume of test compound-containing media. 25 μL of the redox indicator Alamar Blue (Biosource International) was added to each well and the plates were incubated for 48 h at 35° C. Wells having yeast growth changed color from blue to pink.
Inoculums are made in the same manner as yeast except all dilutions are made in normal saline, with a final dilution of 1:200 and an inoculum of 10 μL.

A further assay has as its system Aspergillus species. Description: Minimum inhibitory concentration (MIC) assay, filamentous fungi. The class given is cell-based. The following applies: antifungal activity, lowest concentration at which 75% inhibition of growth is observed after 48 h. Here is the method:
as §1, §2, §3
Inoculums are made by incubating Aspergillus species for 7 days at 35° C. on potato dextrose agar slants. Slants are then covered with 1.0 mL of 0.85% saline, one drop of Tween 20 is added and colonies are teased with a sterile transfer loop to create a suspension which is allowed to sit for 5 min so heavier particles can drop out. The upper suspension is separated and adjusted to an optical density of 0.09 to 0.11. The resulting suspension is diluted 1:50, which yields 2× the final inoculum needed. Micro dilution trays are prepared as with yeast and incubated for 48 h at 35° C. For our purposes the MIC is defined as the lowest compound concentration at which 75% inhibition of growth is observed after 48 h.

On to `N=C(N)NCc1ccc(CNC(=O)c2cc3cc(NC(=O)c4ccc5[nH]c(C(=O)NCc6ccc(CNC(=N)N)cc6)cc5c4)ccc3[nH]2)cc1` [Compound 22, 1H-Indole-2,5-dicarboxylic acid 2-(4-guanidinomethyl-benzylamide) 5-{[2-(4-guanidinomethyl-benzylcarbamoyl)-1H-indol-5-yl]-amide}], for which the MIC in the assay with bacteria is at most 45.5 µM; against Aspergillus species, at most 50 µM.
The matching figures for `CC(=N)NCC1CCC(CNC(=O)c2cc3cc(NC(=O)c4ccc5[nH]c(C(=O)NCC6CCC(CNC(C)=N)CC6)cc5c4)ccc3[nH]2)CC1` (stereo not shown) [Compound 23, 1H-Indole-2,5-dicarboxylic acid 2-{[4-(acetimidoylamino-methyl)-cyclohexylmethyl]-amide} 5-[(2-{[4-(acetimidoylamino-methyl)-cyclohexylmethyl]-carbamoyl}-1H-indol-5-yl)-amide]]: at most 45.5 µM and at most 50 µM.
The matching figures for `N=C(N)NCC1CCCC(CNC(=O)c2cc3cc(NC(=O)c4ccc5[nH]c(C(=O)NCC6CCCC(CNC(=N)N)C6)cc5c4)ccc3[nH]2)C1` (stereo not shown) [Compound 24, 1H-Indole-2,5-dicarboxylic acid 2-[(3-guanidinomethyl-cyclohexylmethyl)-amide] 5-({2-[(3-guanidinomethyl-cyclohexylmethyl)-carbamoyl}-1H-indol-5-yl}-amide)]: at most 45.5 µM and at most 50 µM.
The matching figures for `N=C(N)NCc1cccc(CNC(=O)c2cc3cc(NC(=O)c4ccc5[nH]c(C(=O)NCc6cccc(CNC(=N)N)c6)cc5c4)ccc3[nH]2)c1` [Compound 25, 1H-Indole-2,5-dicarboxylic acid 2-(3-guanidinomethyl-benzylamide) 5-{[2-(3-guanidinomethyl-benzylcarbamoyl)-1H-indol-5-yl]-amide}]: at most 45.5 µM and at most 50 µM.
For `N=C(N)NCCNC(=O)c1ccc2[nH]c(C(=O)Nc3ccc4cc(C(=O)NCCNC(=N)N)[nH]c4c3)cc2c1` [Compound 47, 1H-Indole-2,5-dicarboxylic acid 5-[(2-guanidino-ethyl)-amide] 2-{[2-(2-guanidino-ethylcarbamoyl)-1H-indol-6-yl]-amide}], the MIC against bacteria was at most 45.5 µM; against Aspergillus species it was at most 50 µM.
The matching figures for `CNC(=N)NCCNC(=O)c1ccc2[nH]c(C(=O)Nc3ccc4cc(C(=O)NCCNC(=N)NC)[nH]c4c3)cc2c1` [Compound 48, 1H-Indole-2,5-dicarboxylic acid 5-{[2-(N′-methyl-guanidino)-ethyl]-amide} 2-({2-[2-(N′methyl-guanidino)-ethylcarbamoyl]-1H-indol-6-yl}-amide)]: at most 45.5 µM and at most 50 µM.
`O=C(NCCNC1=NCCN1)c1ccc2[nH]c(C(=O)Nc3ccc4cc(C(=O)NCCNC5=NCCN5)[nH]c4c3)cc2c1` [Compound 50, 1H-Indole-2,5-dicarboxylic acid 5-{[2-(4,5-dihydro-1H-imidazol-2-ylamino)-ethyl]amide} 2-({2-[2-(4,5-dihydro-1H-imidazol-2-ylamino)-ethylcarbamoyl]-1H-indol-6-yl}-amide)]: the MIC against bacteria is at most 45.5 µM; in the assay on Aspergillus species, at most 50 µM.
The matching figures for `N=C(N)NCCCNC(=O)c1ccc2[nH]c(C(=O)Nc3ccc4cc(C(=O)NCCNC(=N)N)[nH]c4c3)cc2c1` [Compound 52, 1H-Indole-2,5-dicarboxylic acid 2-{[2-(2-guanidinoethylcarbamoyl)-1H-indol-6-yl]amide} 5-[(3-guanidinopropyl)amide]dihydrochloride]: at most 45.5 µM and at most 50 µM.
The matching figures for `C/N=C(\N)NCCCNC(=O)c1ccc2[nH]c(C(=O)Nc3ccc4cc(C(=O)NCCN/C(N)=N/C)[nH]c4c3)cc2c1` [Compound 53, 1H-Indole-2,5-dicarboxylic acid 2-({2-[2-(N′-methylguanidino)ethylcarbamoyl]-1H-indole-6-yl}amide) 5-{[3-(N′-methylguanidino)propyl]amide}dihydrochloride]: at most 45.5 µM and at most 50 µM.
For the compound `C/N=C(\NC)NCCCNC(=O)c1ccc2[nH]c(C(=O)Nc3ccc4cc(C(=O)NCCN/C(=N/C)NC)[nH]c4c3)cc2c1` [Compound 54, 1H-Indole-2,5-dicarboxylic acid 2-({2-[2-(N′,N″-dimethylguanidino)ethylcarbamoyl]-1H-indole-6-yl}amide) 5-{[3-(N′,N″-dimethylguanidino)propyl]amide}dihydrochloride], the results for the MIC with bacteria and in the assay with Aspergillus species were at most 45.5 µM and at most 50 µM, respectively.
As for `CNC(=N)NCCNC(=O)c1ccc2[nH]c(C(=O)Nc3ccc4[nH]c(C(=O)NCCNC(=N)NC)cc4c3)cc2c1` [Compound 55], the MIC was at most 45.5 µM in the assay on bacteria and at most 50 µM in the assay with Aspergillus species.
Regarding `O=C(NCCNC1=NCCN1)c1ccc2[nH]c(C(=O)Nc3ccc4[nH]c(C(=O)NCCNC5=NCCN5)cc4c3)cc2c1` [Compound 57, 1H-In dole-2,5-dicarboxylic acid 5-{[2-(4,5-dihydro-1H-imidazol-2-ylamino)ethyl]amide} 2-({2-[2-(4,5-dihydro-1H-imidazol-2-ylamino)ethylcarbamoyl]-1H-indole-5-yl}amide)dihydrochloride], the MIC was at most 45.5 µM with bacteria and at most 50 µM in the assay on Aspergillus species.
The matching figures for `N=C(N)NCCCNC(=O)c1ccc2[nH]c(C(=O)Nc3ccc4[nH]c(C(=O)NCCNC(=N)N)cc4c3)cc2c1` [Compound 58, 1H-Indole-2,5-dicarboxylic acid 2-{[2-(2-guanidinoethylcarbamoyl)-1H-indol-5-yl]amide} 5-[(3-guanidinopropyl)amide]dihydrochloride]: at most 45.5 µM and at most 50 µM.
The matching figures for `C/N=C(\N)NCCCNC(=O)c1ccc2[nH]c(C(=O)Nc3ccc4[nH]c(C(=O)NCCN/C(N)=N/C)cc4c3)cc2c1` [Compound 59, 1H-Indole-2,5-dicarboxylic acid 2-({2-[2-(N′methylguanidino)ethylcarbamoyl]-1H-indol-5-yl}amide) 5-{[3-(N′methylguanidino)propyl]amide}hydrochloride]: at most 45.5 µM and at most 50 µM.
With `C/N=C(\NC)NCCCNC(=O)c1ccc2[nH]c(C(=O)Nc3ccc4[nH]c(C(=O)NCCN/C(=N/C)NC)cc4c3)cc2c1` [Compound 60, 1H-Indole-2,5-dicarboxylic acid 2-({2-[2-(N′,N″-dimethylguanidino)ethylcarbamoyl]-1H-indol-5-yl}amide) 5-{[3-(N′,N″-dimethylguanidino)propyl]amide}hydrochloride], the MIC was at most 45.5 µM against bacteria and at most 50 µM against Aspergillus species.
For the compound `N=C(N)CCNC(=O)c1cc2cc(NC(=O)c3cc4cc(C(=O)NCCNC(=N)N)ccc4[nH]3)ccc2[nH]1` [Compound 61, 1H-Indole-2,5-dicarboxylic acid 2-{[2-(2-carbamimidoylethylcarbamoyl)-1H-indol-5-yl]amide} 5-[(2-guanidinoethyl)amide]dihydrochloride], the MIC against bacteria is at most 45.5 µM; with Aspergillus species, at most 50 µM.
The matching figures for `N=C(N)NCCCNC(=O)c1cc2ccc(NC(=O)c3cc4cc(C(=O)NCCNC(=N)N)ccc4[nH]3)cc2[nH]1` [Compound 62, 1H-Indole-2,5-dicarboxylic acid 5-[(2-guanidino-ethyl)-amide] 2-{[2-(3-guanidino-propylcarbamoyl)-1H-indol-6-yl]-amide}]: at most 45.5 µM and at most 50 µM.
The matching figures for `CNC(=N)NCCCNC(=O)c1cc2ccc(NC(=O)c3cc4cc(C(=O)NCCNC(=N)NC)ccc4[nH]3)cc2[nH]1` [Compound 63, 1H-Indole-2,5-dicarboxylic acid 5-{[2-(N′-methyl-guanidino)-ethyl]-amide} 2-({2-[3-(N′-methyl-guanidino)-propylcarbamoyl]-1H-indol-6-yl}-amide)]: at most 45.5 µM and at most 50 µM.
Consider `C/N=C(\NC)NCCCNC(=O)c1cc2ccc(NC(=O)c3cc4cc(C(=O)NCCN/C(=N/C)NC)ccc4[nH]3)cc2[nH]1` [Compound 64], for which the MIC was at most 45.5 µM against bacteria and at most 50 µM against Aspergillus species.
The matching figures for `N=C(N)NCCCNC(=O)c1cc2cc(NC(=O)c3cc4cc(C(=O)NCCNC(=N)N)ccc4[nH]3)ccc2[nH]1` [Compound 67, 1H-Indole-2,5-dicarboxylic acid 5-[(2-guanidino-ethyl)-amide] 2-{[2-(3-guanidino-propylcarbamoyl)-1H-indol-5-yl]-amide}]: at most 45.5 µM and at most 50 µM.

Usually MIC stands for the smallest concentration in the dilution series that meets the test's criterion for growth inhibition. Low values mean greater potency, high ones weaker potency.

Source of the values: patent US7141680B2, “Aromatic compounds possessing antifungal or antibacterial activity” (Genelabs Technologies, Inc., priority 2002, dated 2006).
